Results on 24 compounds are retold here after US20130158075A1, “HETEROCYCLIC COMPOUNDS AS DGAT1 INHIBITORS” (PIRAMAL ENTERPRISES LIMITED, priority 2010, published 2013).

Structures can show the parent of a compound that is named as a salt.

One test concerns the target T1, hDGAT1 (Homo sapiens, UniProt O75907).
T1 construct: made in house; host or cells: Sf9 insect cells (baculovirus); microsomal fraction
T1 sequence (O75907 1-488): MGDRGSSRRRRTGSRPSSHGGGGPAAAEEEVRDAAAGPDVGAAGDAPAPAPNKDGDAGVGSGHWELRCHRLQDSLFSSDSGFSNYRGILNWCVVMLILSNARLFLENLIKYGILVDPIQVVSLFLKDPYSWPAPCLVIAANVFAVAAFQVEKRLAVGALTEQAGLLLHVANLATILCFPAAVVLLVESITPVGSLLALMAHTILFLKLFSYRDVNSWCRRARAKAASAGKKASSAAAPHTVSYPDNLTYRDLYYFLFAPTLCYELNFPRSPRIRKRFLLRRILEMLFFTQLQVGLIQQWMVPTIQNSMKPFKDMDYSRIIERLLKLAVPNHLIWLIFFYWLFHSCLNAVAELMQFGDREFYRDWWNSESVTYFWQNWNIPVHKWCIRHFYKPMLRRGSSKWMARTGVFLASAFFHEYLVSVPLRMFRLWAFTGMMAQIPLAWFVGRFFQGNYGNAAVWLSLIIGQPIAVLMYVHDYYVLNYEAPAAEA
The test is described as follows: In-vitro DGAT1 assay with hDGAT1 microsomes from Sf9 cells (14C oleoyl CoA, scintillation counting). The note with it: at 1 μM. The test is classed as biochemical. A digest of the protocol:
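Radiolabelled triglyceride formation was measured: heptane extracts were scintillation-counted after a 10-min, 37 °C reaction stopped with alkaline ethanol. Enzyme was human DGAT1 in baculovirus-infected Sf9 microsomal membranes; substrates were 14C oleoyl-CoA plus dioleoylglycerol. Runs were duplicated, and inhibition (%) was related to nM compound concentration.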
For `O=C(Nc1ccc(-c2noc([C@H]3CC[C@H](C(=O)O)CC3)n2)cc1)Nc1ccccc1Cl` [Example 219, (1r,4r)-4-(3-(4-(3-(2-Chlorophenyl)ureido)phenyl)-1,2,4-oxadiazol-5-yl)cyclo hexanecarboxylic acid], the “Percentage inhibition of hDGAT1” value is “+ (20-50% Inhibition)”.

As to `CC(C)(C)c1ccc(C(=O)Nc2ccc(-c3noc([C@H]4CC[C@H](C(=O)O)CC4)n3)cc2)cc1` [Example 229, (1r,4r)-4-(3-(4-(4-tert-Butylbenzamido)phenyl)-1,2,4-oxadiazol-5-yl)cyclo hexane carboxylic acid], the “Percentage inhibition of hDGAT1” value was “+ (20-50% Inhibition)”.

Consider `O=C(O)CCCc1ncc(-c2ccc(NC(=O)c3ccc(-c4ccccc4)cc3)cc2)s1` [Example 61, 4-(5-(4-Biphenyl-4-ylcarboxamidophenyl)thiazol-2-yl)butanoic acid], for which the “Percentage inhibition of hDGAT1” value is reported as “++ (>50 % Inhibition)”.

For the compound `O=C(O)CC1CCC(c2ncc(-c3ccc(NC(=O)c4nc(-c5ccccc5)oc4C(F)(F)F)cc3)s2)CC1` (stereo not drawn) [Example 370, 2-(4-(5-(4-(2-Phenyl-5-(trifluoromethyl)oxazole-4-carboxamido)phenyl)thiazol-2-VI)cyclohexyl)acetic acid], the “Percentage inhibition of hDGAT1” value is “++ (>50 % Inhibition)”.

On to `O=C(Nc1ccc(-c2noc([C@H]3CC[C@H](C(=O)O)CC3)n2)cc1)c1ccc(-c2ccccc2)cc1` [Example 231, (1r,4r)-4-(3-(4-Biphenyl-4-ylcarboxamidophenyl)-1,2,4-oxadiazol-5-yl)cyclo hexanecarboxylic acid], for which the “Percentage inhibition of hDGAT1” value is “+ (20-50% Inhibition)”.

Still in this test, the particulars now being: read-out: Percentage inhibition of hDGAT1.
The inhibition is the drop in the measured response relative to a control, in per cent. Consider `CC(C)(CC(=O)O)Cc1ncc(-c2ccc(NC(=O)Nc3ccc(Cl)cc3Oc3ccccc3)cc2)s1` [Example 73, 4-(5-(4-(3-(4-Chloro-2-phenoxyphenyl)ureido)phenyl)thiazol-2-yl)-3,3-dimethyl butanoic acid], for which the inhibition at 1 µM is more than 50%.

With `CC(C(=O)O)N1CCC(c2ncc(-c3ccc(NC(=O)Nc4cc(F)c(F)cc4F)cc3)s2)CC1` (stereo not drawn) [Example 451, 2-(4-(5-(4-(3-(2,4,5-Trifluorophenyl)ureido)phenyl)thiazol-2-yl)piperidin-1-yl)propanoic acid], the inhibition at 1 µM is more than 50%.

For the compound `O=C(O)CN1CCC(c2ncc(-c3ccc(NC(=O)Nc4ccccc4C(F)(F)F)cc3)s2)CC1` [Example 437, 2-(4-(5-(4-(3-(2-(Trifluoromethyl)phenyl)ureido)phenyl)thiazol-2-yl)piperidin-1-yl)acetic acid], the inhibition at 1 µM was more than 50%.

On to `CC(C)(NS(=O)(=O)C(F)(F)F)c1ncc(-c2ccc(NC(=O)Nc3ccccc3F)cc2)s1` [Example 563, 1,1,1-Trifluoro-N-(2-(5-(4-(3-(2-fluorophenyl)ureido)phenyl)thiazol-2-yl)propan-2-yl)methanesulfonamide], for which the inhibition at 1 µM was more than 50%.

`Cc1nnc(CC2CCC(c3ncc(-c4ccc(NC(=O)Nc5cc(F)c(F)cc5F)cc4)s3)CC2)o1` (stereo not drawn) [Example 382, 1-(4-(2-(4-((5-Methyl-1,3,4-oxadiazol-2-yl)methyl)cyclohexyl)thiazol-5-yl)phenyl)-3-(2,4,5-trifluorophenyl)urea]: the inhibition at 1 µM is more than 50%.

As to `CC(C)(Cc1ncc(-c2ccc(NC(=O)Nc3ccc(C(F)(F)F)cc3)cc2)s1)C(=O)O` [Example 32, 2,2-Dimethyl-3-(5-(4-(3-(4-(trifluoromethyl)phenyl)ureido)phenyl)thiazol-2-yl)propanoic acid], the inhibition at 1 µM is more than 50%.

For `Cc1nnc(CC2CCC(c3ncc(-c4ccc(NC(=O)Nc5cc(F)c(F)cc5F)cc4)s3)CC2)s1` (stereo not drawn) [Example 414, 1-(4-(2-(4-((5-Methyl-1,3,4-thiadiazol-2-yl)methyl)cyclohexyl)thiazol-5-yl)phenyl)-3-(2,4,5-trifluorophenyl)urea], the inhibition at 1 µM was more than 50%.

For the compound `O=C(Nc1ccc(-c2cnc(C34CC5CC(CC(C(=O)O)(C5)C3)C4)s2)cc1)Nc1cccc(C(F)(F)F)c1` [Example 514, 3-(5-(4-(3-(3-(Trifluoromethyl)phenyl)ureido)phenyl)thiazol-2-yl)adamantane-1-carboxylic acid], the inhibition at 1 µM is more than 50%.

On to `Cc1noc(CC2CCC(c3ncc(-c4ccc(NC(=O)c5c(F)cccc5F)cc4)s3)CC2)n1` (stereo not drawn) [Example 396, 2,6-Difluoro-N-(4-(2-(4-((3-methyl-1,2,4-oxadiazol-5-yl)methyl)cyclohexyl)thiazol-5-yl)phenyl)benzamide], for which the inhibition at 1 µM was 20 to 50%.

As to `CC(C)(CC(=O)O)Cc1ncc(-c2ccc(NC(=O)Nc3ccccc3Cl)cc2)s1` [Example 71, 4-(5-(4-(3-(2-Chlorophenyl)ureido)phenyl)thiazol-2-yl)-3,3-dimethyl butanoic acid], the inhibition at 1 µM was more than 50%.

For `Cc1noc(CC2CCC(c3ncc(-c4ccc(NC(=O)Nc5ccccc5Cl)cc4)s3)CC2)n1` (stereo not drawn) [Example 390, 1-(2-Chlorophenyl)-3-(4-(2-(4-((3-methyl-1,2,4-oxadiazol-5-yl)methyl)cyclohexyl)thiazol-5-yl)phenyl)urea], the inhibition at 1 µM was more than 50%.

Take `O=C(Nc1ccc(Cl)cc1)Nc1ccc(-c2cnc(C3CCC(C(=O)O)CC3)s2)cc1` (stereo not drawn) [Example 146, 4-(5-(4-(3-(4-Chlorophenyl)ureido)phenyl)thiazol-2-yl)cyclohexane carboxylic acid]: the inhibition at 1 µM was more than 50%.

`O=C(Nc1ccc(-c2cnc(C3CCNCC3)s2)cc1)Nc1ccccc1Cl` [Example 474, 1-(2-Chlorophenyl)-3-(4-(2-(piperidin-4-yl)thiazol-5-yl)phenyl)urea hydrochloride]: the inhibition at 1 µM is 20 to 50%.

As to `O=C(O)CC1CCC(c2ncc(-c3ccc(NC(=O)c4c(F)cccc4C(F)(F)F)cc3)s2)CC1` (stereo not drawn) [Example 366, 2-(4-(5-(4-(2-Fluoro-6-(trifluoromethyl)benzamido)phenyl)thiazol-2-yl)cyclohexyl)acetic acid], the inhibition at 1 µM was more than 50%.

Turning to `CS(=O)(=O)N1CCC(c2ncc(-c3ccc(NC(=O)Nc4ccccc4Cl)cc3)s2)CC1` [Example 490, 1-(2-Chlorophenyl)-3-(4-(2-(1-(methylsulfonyl)piperidin-4-yl)thiazol-5-yl)phenyl)urea], the inhibition at 1 µM lay in the range of 20 to 50%.

`CC(C)(NS(=O)(=O)C(F)(F)F)c1ncc(-c2ccc(NS(=O)(=O)c3ccccc3)cc2)s1` [Example 568, N-(4-(2-(2-(Trifluoromethylsulfonamido)propan-2-yl)thiazol-5-yl)phenyl)benzenesulfonamide]: the inhibition at 1 µM fell in the range of 20 to 50%.

With `O=C(O)CC1CCC(c2ncc(-c3ccc(NC(=O)Nc4c(F)cc(F)cc4F)cc3)s2)CC1` (stereo not drawn) [Example 360, 2-(4-(5-(4-(3-(2,4,6-Trifluorophenyl)ureido)phenyl)thiazol-2-yl)cyclohexyl)acetic acid], the inhibition at 1 µM was more than 50%.

Consider `O=C(O)CC1CCC(c2ncc(-c3ccc(NC(=O)Nc4cc(F)c(F)cc4F)cc3)s2)CC1` (stereo not drawn) [Example 358, 2-(4-(5-(4-(3-(2,4,5-Trifluorophenyl)ureido)phenyl)thiazol-2-yl)cyclohexyl)acetic acid], for which the inhibition at 1 µM was more than 50%.

Take `CC(C)(CCc1ncc(-c2ccc(NC(=O)NCc3ccc(C#N)cc3)cc2)s1)C(=O)O` [Example 265, 4-(5-(4-(3-(4-Cyanobenzyl)ureido)phenyl)thiazol-2-yl)-2,2-dimethylbutanoic acid]: the inhibition at 1 µM was 20 to 50%.
